Reference: patent US8846951B2 (AbbVie Inc., priority 2009, dated 2014)
Read-outs that look alike come from different tables or passages of the source.

How the values were obtained:
[1] = biological target: T1, 5HT2B receptors (Homo sapiens, UniProt P41595); test: Human 5-HT2B functional high throughput screening assay in CHO-K1 cells (calcium flux); format: cell-based; conditions: for EC50: CHO-K1 cells, calcium flux
T1 construct: expressed in transfected cells; host or cells: CHO-K1 cells
How it was run: (§1)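 Agonism is measured as intracellular calcium increase in receptor-overexpressing CHO-K1 cells, read by FLIPR at 25 °C. Responses are expressed relative to serotonin, with EC50 and Emax derived from a 4-parameter logistic curve over 6 concentrations starting at 10 μM.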

[2] = biological target: T2, 5HT2C receptors (Homo sapiens, UniProt P28335); test: Human 5-HT2C functional high throughput screening assay in CHO-K1 cells (calcium flux); format: cell-based; parameters: expressed in transfected cells; host or cells: CHO-K1 cells; conditions: for EC50: CHO-K1 cells, calcium flux; for Emax: CHO-K1
T2 sequence (P28335 33-458): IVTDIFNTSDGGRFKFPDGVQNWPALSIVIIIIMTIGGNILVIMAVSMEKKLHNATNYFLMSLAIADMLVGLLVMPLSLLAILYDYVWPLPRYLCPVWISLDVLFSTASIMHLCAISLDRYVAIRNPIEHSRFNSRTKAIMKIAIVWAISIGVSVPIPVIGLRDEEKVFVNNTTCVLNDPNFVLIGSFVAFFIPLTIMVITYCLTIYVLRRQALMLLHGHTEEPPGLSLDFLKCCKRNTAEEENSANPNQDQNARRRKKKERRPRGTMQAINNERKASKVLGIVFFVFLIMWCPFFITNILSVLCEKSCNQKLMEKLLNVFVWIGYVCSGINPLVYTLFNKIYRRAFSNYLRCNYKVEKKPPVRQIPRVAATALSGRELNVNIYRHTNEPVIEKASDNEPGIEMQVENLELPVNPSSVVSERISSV
How it was run: as §1

[3] = 5-HT2B agonist activity, read-out: EC50
[4] = 5-HT2B, maximum functional response as percentage relative to the effect of serotonin
[5] = 5-HT2C agonist activity, read-out: EC50
[6] = 5-HT2C, maximum functional response as percentage relative to the effect of serotonin, read-out: Emax
[7] = 5-HT2C, maximum functional response as percentage relative to the effect of serotonin
[8] = CHO-K1, 5-HT2B, maximum functional response as percentage relative to the effect of serotonin, read-out: Emax

T1 sequence (P41595 whole entry): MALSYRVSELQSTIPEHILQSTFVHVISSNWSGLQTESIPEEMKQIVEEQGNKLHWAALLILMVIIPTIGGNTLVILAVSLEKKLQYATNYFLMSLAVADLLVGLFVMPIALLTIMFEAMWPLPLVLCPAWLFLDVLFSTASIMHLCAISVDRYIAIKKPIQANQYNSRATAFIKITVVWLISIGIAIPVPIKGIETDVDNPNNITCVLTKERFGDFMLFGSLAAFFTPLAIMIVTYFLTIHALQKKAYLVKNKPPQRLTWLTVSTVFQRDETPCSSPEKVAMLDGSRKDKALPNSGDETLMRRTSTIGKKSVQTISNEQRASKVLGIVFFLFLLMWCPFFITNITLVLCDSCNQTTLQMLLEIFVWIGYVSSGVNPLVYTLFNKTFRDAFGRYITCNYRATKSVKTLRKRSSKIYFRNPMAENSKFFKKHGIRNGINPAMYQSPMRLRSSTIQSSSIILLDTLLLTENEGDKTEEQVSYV

EC50 [1, 3] | Emax [1, 4] | EC50 [2, 5] | Emax [2, 6] | Emax [1, 8] | SMILES | Emax ([1]; CHO-K1) | EC50 ([1]; EC50, 5-HT2B agonist activity) | Emax [2, 7] | EC50 ([2]; EC50, 5-HT2C agonist activity) | Emax [1] | Emax [2]
> 10000 nM | inactive | 20 nM | 80% |  | CN1C[C@H]2CNC(=O)c3cc(-c4cc(F)c(F)c(F)c4)ccc3[C@@H]2C1 (relative stereo) [Example 322, Trans-2-methyl-8-(3,4,5-trifluorophenyl)-2,3,3a,4,5,10b-hexahydropyrrolo[3,4-d][2]benzazepin-6(1H)-one] |  |  |  |  |  | 
> 10000 nM | inactive | 0.8 nM | 95% |  | CCC(O)c1cccc(-c2ccc3c(c2)C(=O)NC[C@H]2CN(C)C[C@H]32)c1 (stereo partly drawn) [Example 311, (3aS,10bS)-8-[3-(1-Hydroxypropyl)phenyl]-2-methyl-2,3,3a,4,5,10b-hexahydropyrrolo[3,4-d][2]benzazepin-6(1H)-one] |  |  |  |  |  | 
> 10000 nM | inactive | 10 nM | > 120% |  | COc1cc(OC)c2c(c1)C(=O)NC[C@@H]1CN(Cc3ccccc3)C[C@@H]21 (relative stereo) [Example 98, Trans-2-benzyl-8,10-dimethoxy-1,2,3,3a,4,5-hexahydrobenzo[c]pyrrolo[3,4-e]azepin-6(10bH)-one] |  |  |  |  |  | 
> 10000 nM | inactive | 30 nM | 110% |  | COc1cccc(CCOc2ccc3c(c2)C(=O)NC[C@@H]2CNC[C@@H]32)c1 (relative stereo) [Example 174, Trans-8-(3-methoxyphenethoxy)-1,2,3,3a,4,5-hexahydrobenzo[e]pyrrolo[3,4-c]azepin-6(10bH)-one] |  |  |  |  |  | 
> 10000 nM | inactive | 1000 nM | 90% |  | CN1C[C@H]2CNC(=O)c3cc(C4CCOCC4)ccc3[C@@H]2C1 (relative stereo) [Example 267, Trans-2-methyl-8-(tetrahydro-2H-pyran-4-yl)-1,2,3,3a,4,5-hexahydrobenzo[c]pyrrolo[3,4-e]azepin-6(10bH)-one] |  |  |  |  |  | 
> 10000 nM | inactive |  | 90% |  | CN1C[C@H]2CNC(=O)c3cc(-c4ccc(F)cc4)ccc3[C@@H]2C1 [Example 116, (3aR,10bR)-8-(4-Fluorophenyl)-2-methyl-1,2,3,3a,4,5-hexahydrobenzo[e]pyrrolo[3,4-c]azepin-6(10bH)-one] |  |  |  |  |  | 
> 10000 nM | inactive | 1.7 nM | > 120% |  | Cc1cccc(-c2ccc3c(c2)C(=O)NC[C@@H]2CN(C)C[C@@H]32)c1 (relative stereo) [Example 81, Trans-2-methyl-8-m-tolyl-1,2,3,3a,4,5-hexahydrobenzo[e]pyrrolo[3,4-c]azepin-6(10bH)-one] |  |  |  |  |  | 
> 10000 nM | inactive | 90 nM | 90% |  | CC(=O)c1cccc(-c2cccc3c2OCC[C@H]2CNC[C@H]32)c1 (relative stereo) [Example 351, 1-{3-[Trans-2,3,3a,4,5,10b-hexahydro-1H-[1]benzoxepino[4,5-c]pyrrol-7-yl]phenyl}ethanone] |  |  |  |  |  | 

The next lines start with the molecule.

SMILES | EC50 [1, 3] | Emax [1, 4] | EC50 [2, 5] | Emax [2, 6] | Emax [1, 8] | Emax ([1]; CHO-K1) | EC50 ([1]; EC50, 5-HT2B agonist activity) | Emax [2, 7] | EC50 ([2]; EC50, 5-HT2C agonist activity) | Emax [1] | Emax [2]
c1ccc(-c2cccc3c2OCC[C@H]2CNC[C@H]32)cc1 (relative stereo) [Example 397, Trans-7-phenyl-2,3,3a,4,5,10b-hexahydro-1H-[1]benzoxepino[4,5-c]pyrrole] | > 10000 nM | inactive | 5 nM | 95% |  |  |  |  |  |  | 
Fc1ccc2c(c1)OCC[C@H]1CN(Cc3ccccc3)C[C@H]21 (relative stereo) [Example 107, Trans-2-benzyl-8-fluoro-2,3,3a,4,5,10b-hexahydro-1H-[1]benzoxepino[4,5-c]pyrrole] |  |  |  |  |  | 15% | 700 nM | 110% | 90 nM |  | 
CC(C)COc1ccc2c(c1)C(=O)NC[C@@H]1CN(CCF)C[C@@H]21 (relative stereo) [Example 380, Trans-2-(2-fluoroethyl)-8-isobutoxy-2,3,3a,4,5,10b-hexahydropyrrolo[3,4-d][2]benzazepin-6(1H)-one] | > 10000 nM |  | 300 nM |  |  |  |  |  |  | inactive | 75%
FC(F)(F)Oc1ccc2c(c1)[C@H]1CNC[C@@H]1CCO2 (relative stereo) [Example 282, Trans-9-(trifluoromethoxy)-2,3,3a,4,5,10b-hexahydro-1H-[1]benzoxepino[4,5-c]pyrrole] | 200 nM |  | 900 nM |  |  | 30% |  | 70% |  |  | 
c1ccc(CN2C[C@H]3CCNc4ccccc4[C@@H]3C2)cc1 (relative stereo) [Example 254, Trans-2-benzyl-1,2,3,3a,4,5,6,10b-octahydrobenzo[b]pyrrolo[3,4-d]azepine] | 800 nM |  | 1000 nM | 105% | 30% |  |  |  |  |  | 
O=S(=O)(c1ccc(Cl)s1)N1Cc2cccnc2[C@@H]2CNC[C@H]2C1 (relative stereo) [Example 339, Trans-6-[(5-chloro-2-thienyl)sulfonyl]-5,6,7,7a,8,9,10,10a-octahydropyrido[3,2-c]pyrrolo[3,4-e]azepine] |  | inactive |  |  |  |  | > 10000 nM | 110% | 30 nM |  | 
O=S(=O)(c1cccc(OC(F)(F)F)c1)N1Cc2cccnc2[C@@H]2CNC[C@H]2C1 (relative stereo) [Example 366, Trans-6-{[3-(trifluoromethoxy)phenyl]sulfonyl}-5,6,7,7a,8,9,10,10a-octahydropyrido[3,2-c]pyrrolo[3,4-e]azepine] | 200 nM |  | 100 nM | 85% | 85% |  |  |  |  |  | 
CN1C[C@H]2CNC(=O)c3cc(C4CCCCC4)ccc3[C@@H]2C1 (relative stereo) [Example 204, Trans-8-cyclohexyl-2-methyl-1,2,3,3a,4,5-hexahydrobenzo[e]pyrrolo[3,4-c]azepin-6(10bH)-one] | > 10000 nM | inactive | 500 nM |  |  |  |  | 80% |  |  | 
O=C1NC[C@@H]2CNC[C@H]2c2c1sc1ccccc21 (relative stereo) [Example 99, Trans-2,3,3a,4,5,11c-hexahydro[1]benzothieno[2,3-e]pyrrolo[3,4-e]azepin-6(1H)-one] |  |  |  |  |  | 90% | 1000 nM | > 120% | 20 nM |  | 
Cc1noc(C)c1-c1ccc2c(c1)C(=O)NC[C@@H]1CNC[C@@H]21 (single isomer, unassigned) [Example 245, Trans-8-(3,5-dimethylisoxazol-4-yl)-1,2,3,3a,4,5-hexahydrobenzo[e]pyrrolo[3,4-c]azepin-6(10bH)-one] |  |  |  |  |  | 15% | 2000 nM | 100% | 50 nM |  | 
O=C1NC[C@@H]2CNC[C@H]2c2ccc(OCc3ccccc3F)cc21 (relative stereo) [Example 147, Trans-8-(2-fluorobenzyloxy)-1,2,3,3a,4,5-hexahydrobenzo[e]pyrrolo[3,4-c]azepin-6(10bH)-one] |  | inactive |  |  |  |  | > 10000 nM | > 120% |  |  | 
Clc1cccc2c1OCC[C@H]1CNC[C@@H]21 (relative stereo) [Example 295, Cis-7-chloro-2,3,3a,4,5,10b-hexahydro-1H-[1]benzoxepino[4,5-c]pyrrole] |  |  |  |  |  | 40% | 60 nM | 100% | 10 nM |  | 
